{"source": "patent US10159635B2", "about": "“Cosmetic and pharmaceutical uses of saccharides” (CURAPEL (SCOTLAND) LIMITED, priority 2012, dated 2018)", "key": {"[1]": {"system": "melanin in ex-vivo human skin", "assay": "Masson Fontana melanin staining of ex-vivo human skin in organ culture", "assay_type": "cell-based", "protocol": "Samples of full thickness ex-vivo human skin were obtained from elective plastic surgery procedures. […] Two concentrations of the NDO melibiose, 1.5 and 3.0% (w/v) were tested for their ability to reduce skin pigmentation by addition to the medium surrounding the cultured skin samples at day 1 and every time the medium was changed thereafter. As a control some skin samples were cultured under identical conditions apart from the […] of melibiose.\nAt day 6, the skin samples were immersed in cryo-embedding medium and 5 μm sections cut and stained using the Masson Fontana assay. The principle of the Masson Fontana assay is that melanin granules reduce silver from ammoniacal silver nitrate solution to a visible metallic state. Information on the protocol for the Masson-Fontana Assay may be found in relevant laboratory handbooks, for example Lille RD, 1965, Histopathologic Technique and Practical Histochemistry, 3rd Ed 1965, the Blakiston Division, McGraw Hill Book Company, p 240, which is incorporated herein by reference.\nFollowing the fixation of cryosections of skin with ethanol/acetic acid, slides were heated in 0.5% ammoniacal silver nitrate solution using a microwave. Sections were then toned in 1% gold chloride, fixed in 5% sodium thiosulphate and counterstained with haematoxylin before mounting using DPEX. Melanin stain can then be visualised using light microscopy.\nSamples of full thickness ex-vivo human skin were obtained as described in Example 1 and were maintained in organ culture for 6 days. Two concentrations of the NDO melibiose, 25 mM and 50 mM, and two concentration of the NDO P95 (a 95% mixture of oligofructose, also known as fructooligosaccharides (FOS)), 25 mM and 50 mM, were tested for their ability to reduce skin pigmentation by addition to the medium surrounding the cultured skin samples at day 1 and every time the medium was changed thereafter. As a control some skin samples were cultured under identical conditions apart from the absence of NDO. […]"}, "[2]": {"system": "interleukin-8 (IL-8) production by HaCaT keratinocytes", "assay": "IL-8 ELISA on culture supernatant of keratinocytes", "assay_type": "cell-based", "protocol": "Following an overnight coating of a flat-bottomed 96 well plate with an anti-IL-8 antibody, a 9-point IL-8 standard curve was generated using serial dilutions from a 2000 pg/ml IL-8 stock solution. These were cultured on the 96 well plate for 2 h along side culture supernatants derived from keratinocytes exposed to sugars. The plate was then washed and incubated for 2 h with an anti-IL-8 biotin-antibody before the plate was again washed and left for 20 min with a solution of streptavidin-HRP. After a final wash the plate was coated with a solution of tetramethyl benzidine forming a blue reaction product, the intensity of which relates to amount of IL-8 present in the original culture supernatant. This reaction was stopped using sulphuric acid turning the solution yellow which was then read on a microplate reader at […]. Unknown sample concentrations of IL-8 were determined using the standard curve."}}, "data": [{"smiles": "OC[C@H]1O[C@H](OCC2O[C@@H](O)[C@H](O)[C@@H](O)[C@@H]2O)[C@H](O)[C@@H](O)[C@H]1O", "note": "(some centres unmarked) [melibiose]", "values": [{"measurement": "reduction in melanin staining (mean density, image analysis) in treated skin vs control", "setting": "[1]; Example 1, ex-vivo human skin, 6 days culture, 25 mM or 50 mM melibiose, FIG. 2b", "result": "approximately 10%"}, {"measurement": "melanin in stained skin sections, treated vs untreated control", "setting": "[1]; Example 1, full thickness ex-vivo human skin, 6 days organ culture, melibiose 1.5 and 3.0% (w/v) in medium, FIG. 2a", "result": "significant reduction in melanin"}, {"measurement": "mean density of melanin staining, treated skin vs control", "setting": "[1]; Example 2, ex-vivo human skin, 6 days organ culture, 25 mM or 50 mM NDO in medium, FIG. 3", "result": "reduction in melanin staining"}, {"measurement": "constitutive (baseline) IL-8 secretion", "setting": "[2]; HaCaT keratinocytes, unstimulated, FIG. 4a", "result": "mildly dose-responsive suppression"}, {"measurement": "IL-8 secretion in response to IL-1β stimulation", "setting": "[2]; keratinocytes stimulated with IL-1β, 5% melibiose, FIG. 4b", "result": "reduced to nearly control levels"}]}]}
